Data: ChEMBL document CHEMBL5291721, “A preclinical secondary pharmacology resource illuminates target-adverse drug reaction associations of marketed drugs” (Nat Commun, 2023)

Target: T1, Glucocorticoid receptor (Homo sapiens, UniProt P04150)
T1 sequence (P04150 whole entry): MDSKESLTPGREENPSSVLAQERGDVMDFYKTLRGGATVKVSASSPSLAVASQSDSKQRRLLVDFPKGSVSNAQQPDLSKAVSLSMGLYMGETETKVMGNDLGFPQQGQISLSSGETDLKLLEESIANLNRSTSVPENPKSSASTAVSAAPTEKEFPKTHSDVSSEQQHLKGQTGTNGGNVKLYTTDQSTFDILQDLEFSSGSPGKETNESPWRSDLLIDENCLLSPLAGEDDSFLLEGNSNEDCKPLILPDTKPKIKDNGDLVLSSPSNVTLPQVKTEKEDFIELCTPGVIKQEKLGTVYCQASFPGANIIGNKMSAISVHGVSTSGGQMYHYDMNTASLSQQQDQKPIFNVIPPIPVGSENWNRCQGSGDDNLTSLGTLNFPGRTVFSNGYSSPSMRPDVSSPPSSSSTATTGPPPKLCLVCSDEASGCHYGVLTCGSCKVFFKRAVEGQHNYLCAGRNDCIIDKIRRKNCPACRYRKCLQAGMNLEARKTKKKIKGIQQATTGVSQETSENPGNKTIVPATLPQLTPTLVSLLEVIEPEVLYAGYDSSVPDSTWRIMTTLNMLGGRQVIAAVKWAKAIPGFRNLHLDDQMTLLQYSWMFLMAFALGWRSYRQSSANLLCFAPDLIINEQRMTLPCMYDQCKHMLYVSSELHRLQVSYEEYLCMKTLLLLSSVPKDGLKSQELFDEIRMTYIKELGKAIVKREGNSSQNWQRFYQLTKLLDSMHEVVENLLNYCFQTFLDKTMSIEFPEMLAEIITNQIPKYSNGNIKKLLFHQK
Assay type: functional
Further: assay procedure not described here.

## COc1cccc2c1C(=O)c1c(O)c3c(c(O)c1C2=O)C[C@@](O)(C(=O)CO)C[C@@H]3O[C@H]1C[C@H](N)[C@H](O)[C@H](C)O1 [DOXORUBICIN]
  AC50: > 10 µM
